The results in this text go back to US20050118290A1, “Compositions and method for treatment of steroid/nuclear receptor-mediated diseases” (University of Singapore, priority 2003, published 2005).

Test [1] has as its target T1, Progesterone Receptor (Homo sapiens, UniProt P06401).
T1 construct: expressed in transfected cells; host or cells: HeLa (named for the formononetin and daidzein experiments)
T1 sequence (P06401 1-933): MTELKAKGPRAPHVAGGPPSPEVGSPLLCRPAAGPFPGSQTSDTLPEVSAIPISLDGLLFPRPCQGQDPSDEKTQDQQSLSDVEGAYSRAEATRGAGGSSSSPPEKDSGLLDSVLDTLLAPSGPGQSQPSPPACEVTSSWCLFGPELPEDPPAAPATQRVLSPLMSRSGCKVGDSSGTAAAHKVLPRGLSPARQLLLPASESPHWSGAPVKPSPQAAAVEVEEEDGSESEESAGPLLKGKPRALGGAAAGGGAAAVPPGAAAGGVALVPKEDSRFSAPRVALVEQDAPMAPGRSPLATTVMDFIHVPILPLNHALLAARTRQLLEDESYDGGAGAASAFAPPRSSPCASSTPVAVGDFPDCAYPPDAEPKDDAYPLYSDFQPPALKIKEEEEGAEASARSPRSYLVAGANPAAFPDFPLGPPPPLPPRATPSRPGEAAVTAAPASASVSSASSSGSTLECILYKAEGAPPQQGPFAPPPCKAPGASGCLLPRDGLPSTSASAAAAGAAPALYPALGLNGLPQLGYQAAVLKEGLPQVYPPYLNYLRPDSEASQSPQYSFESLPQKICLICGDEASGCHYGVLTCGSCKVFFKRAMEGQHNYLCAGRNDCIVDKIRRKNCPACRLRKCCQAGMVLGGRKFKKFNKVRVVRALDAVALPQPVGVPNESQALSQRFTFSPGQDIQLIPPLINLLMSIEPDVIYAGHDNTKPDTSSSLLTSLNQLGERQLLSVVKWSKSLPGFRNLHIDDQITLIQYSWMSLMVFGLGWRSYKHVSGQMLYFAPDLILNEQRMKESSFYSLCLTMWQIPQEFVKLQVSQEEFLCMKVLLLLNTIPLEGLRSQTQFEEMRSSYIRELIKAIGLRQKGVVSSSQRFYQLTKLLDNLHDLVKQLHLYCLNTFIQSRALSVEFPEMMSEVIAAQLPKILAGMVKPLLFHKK
Put plainly: PR (ARE)2-Luc luciferase reporter gene assay. The format is cell-based. Here is the method:
(§1) The capacity of HQ extract to activate other steroid receptors, namely AR, PR, GR, ERα and ERβ was examined. […] The (ARE)2-Luc plasmid consist of two repeats of Androgen Response Element (ARE) cloned upstream of the Luciferase Reporter gene in a pGL3-Basic vector (Promega).
(§2) AR, PR, GR and ERα and […] were determined by comparing luciferase activity in test cells with control cells exposed to vehicle (i.e., ethanol or methanol) only, analogous to the determination of PPAR activity as described in the previous examples.
For orientation: A reporter such as luciferase makes a cellular process visible.

The target of test [2] is T2, human androgen receptor (Homo sapiens, UniProt P10275).
T2 construct: expressed in transfected cells; host or cells: HeLa
T2 sequence (P10275 1-920): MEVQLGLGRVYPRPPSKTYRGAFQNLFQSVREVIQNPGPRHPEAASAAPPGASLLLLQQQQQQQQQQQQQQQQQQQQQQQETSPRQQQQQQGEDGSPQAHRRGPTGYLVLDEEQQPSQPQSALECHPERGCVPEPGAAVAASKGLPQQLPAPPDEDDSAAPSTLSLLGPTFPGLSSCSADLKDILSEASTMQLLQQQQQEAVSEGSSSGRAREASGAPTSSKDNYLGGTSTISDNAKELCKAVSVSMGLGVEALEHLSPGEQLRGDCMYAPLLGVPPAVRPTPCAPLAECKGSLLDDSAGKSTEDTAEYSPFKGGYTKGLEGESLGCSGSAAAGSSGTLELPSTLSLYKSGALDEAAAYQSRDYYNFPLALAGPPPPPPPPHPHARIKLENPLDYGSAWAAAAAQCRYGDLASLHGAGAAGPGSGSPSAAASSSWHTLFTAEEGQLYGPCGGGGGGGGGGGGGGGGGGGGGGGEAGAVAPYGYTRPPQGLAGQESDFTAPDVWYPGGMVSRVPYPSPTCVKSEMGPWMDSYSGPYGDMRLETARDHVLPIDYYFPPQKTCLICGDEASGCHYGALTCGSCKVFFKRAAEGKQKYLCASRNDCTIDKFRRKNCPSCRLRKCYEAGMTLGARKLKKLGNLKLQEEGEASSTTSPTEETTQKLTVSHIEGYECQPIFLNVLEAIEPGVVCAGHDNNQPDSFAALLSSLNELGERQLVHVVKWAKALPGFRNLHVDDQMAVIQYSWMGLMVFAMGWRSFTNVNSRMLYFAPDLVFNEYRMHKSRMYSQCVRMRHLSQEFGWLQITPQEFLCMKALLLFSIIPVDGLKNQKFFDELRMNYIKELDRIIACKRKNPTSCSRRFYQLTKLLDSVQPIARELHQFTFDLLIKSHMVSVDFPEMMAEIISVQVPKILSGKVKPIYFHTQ
Put plainly: AR (ARE)2-Luc luciferase reporter gene assay in HeLa cells. The format is cell-based. Here is the method: as §1, §2

As for `COc1ccc(-c2coc3cc(O)ccc3c2=O)cc1O` [calycosin, 3′,7-Dihydroxy-4′-methoxyisoflavone], the “Luciferase activity (Fold over vehicle ± SE) PR/Progesterone (10 × 10^−6M)” value is 1077 ± 43.4 Fold in test [1] (calycosin 3 ×10^−6 g/mL), 943 ± 44.0 Fold in test [1] (calycosin 10 ×10^−6 g/mL) and 837 ± 115 Fold in test [1] (calycosin 30 ×10^−6 g/mL). Besides, in test [1] (with progesterone 10×10^−6M), the “increase of the activity of maximal doses of PR agonist” value is given as 1.8 fold. Also, the “Luciferase activity (Fold over vehicle ± SE) AR/Dihydrotestosterone (1 × 10^−9M)” value in test [2] (calycosin 3 ×10^−6 g/mL) was 1997 ± 96.1 Fold; in test [2] (calycosin 10 ×10^−6 g/mL), 4080 ± 5.67 Fold; in test [2] (calycosin 30 ×10^−6 g/mL) it was 4502 ± 995 Fold. Besides, the “increase of the activity of maximal doses of AR agonist” value in test [2] (with dihydrotestosterone 1×10^−9M) is 5.8 fold.

Turning to `O=c1c(-c2ccc(O)cc2)coc2cc(O)ccc12` [daidzein], the “Luciferase activity (Fold over vehicle ± SE) PR/Progesterone (10 × 10^−9M)” value in test [1] (daidzein 5 ×10^−6 g/mL) is recorded as 569 ± 84.0 Fold; in test [1] (daidzein 10 ×10^−6 g/mL), 607 ± 90.6 Fold; in test [1] (daidzein 20 ×10^−6 g/mL) it was 326 ± 65.8 Fold. The “Luciferase activity (Fold over vehicle ± SE) AR/Dihydrotestosterone (1 × 10^−9M)” value is listed as 1703 ± 154 Fold in test [2] (daidzein 5 ×10^−6 g/mL), 1684 ± 146 Fold in test [2] (daidzein 10 ×10^−6 g/mL) and 1547 ± 257 Fold in test [2] (daidzein 20 ×10^−6 g/mL).
